Legend:
[1] = tested on: primary human astrocytes; experiment: Viability of primary human astrocytes; format: cell-based; settings: doses that result in complete cell death of LN227, U251 and U-87MG; not shown
Protocol: To define the capacity of CDDO-2P-IM to suppress the growth and viability of GBM, several well-characterized human GBM cell lines (U251, U-87MG, LN227, Gli36Δ5), primary cultures of patient-derived GBM cells (UVM04, D028), and normal human astrocytes (provided by Dr. Arti Gaur, Dartmouth College) were utilized.
The activity of CDDO-2P-IM in cultures of human GBM was assessed and similar nanomolar (nM) potency was observed. […] These changes in confluence observed by Incucyte® corresponded with a reduction in cell viability. Doses of CDDO-2P-IM that result in complete cell death of the LN227, U251 and U-87MG cell lines had no effect on the viability of primary human astrocytes in vitro (not shown).

[2] = tested on: 5T33MM cells; experiment: 5T33MM syngeneic preclinical model of multiple myeloma; format: in vivo
Excerpt: FIG. 1 is a survival curve. Survival of mice receiving either ixazomib (IXZ) or CDDO-2P-Im starting 21 days after tumor cell injection (n=5 mice per group). CDDO-2P-Im is active in the […] preclinical model of multiple myeloma.
A well-characterized syngeneic model of MM was employed. Adoptive transfer of 5T33MM cells into C57BL/KaLwRij recipient mice invariably leads to MM bone disease, impaired hematopoietic function and death.
To monitor MM tumor progression in the 5T33MM preclinical model, a 5T33MM cell line that expresses either luciferase or GFP genes was established by transducing with lentiviral particles containing firefly luciferase and GFP genes (Amsibo, Cambridge, MA); cells were selected with FACS sorting for GFP expression and by puromycin-resistance. For these experiments, 1×10^6 5T33MM-luc cells were introduced by intravenous injection into C57BL/KaLwRij mice at 2 months of age. Bioluminescence (BLI) was measured by using the IVIS Imaging System 100 (Xenogen). At 3 weeks after 5T33MM cell inoculation (where mice have established disease by BLI), mice were randomized to receive either vehicle, CDDO-2P-IM ([…] daily administered by oral gavage (po), 5 days/week), or ixazomib (IXZ; 6 mg/kg per week, administered po every Monday, Wednesday and Friday).

Compound: CC1(C)CC[C@]2(C(=O)n3cnc(-c4ccccn4)c3)CC[C@]3(C)[C@H](C(=O)C=C4[C@@]5(C)C=C(C#N)C(=O)C(C)(C)[C@@H]5CC[C@]43C)[C@@H]2C1 [CDDO-2P-Im, 1-[2-Cyano-3,12-dioxooleana-1,9(11)-dien-28-oyl]-4(-pyridin-2-yl)-1H-imidazole]
- viability [1]: no effect
- anti-MM activity (survival) as a single agent ([2]; daily oral gavage 5 days/week from 3 weeks after 5T33MM-luc inoculation, compared to IXZ 6 mg/kg per week po): comparable to or better than IXZ
- tolerability ([2]; daily oral regimen): well tolerated

Source: US12370202B2, “Methods and compositions for inhibiting the NLRP3 inflammasome and/or LON protease” (TRITERPENOID THERAPEUTICS, INC., priority 2019, dated 2025)
